The values below come from patent US20130116286A1, “DROXIDOPA AND PHARMACEUTICAL COMPOSITION THEREOF FOR THE TREATMENT OF NEURALLY MEDIATED HYPOTENSION” (Chelsea Therapeutics, Inc., priority 2007, published 2013).

The subject of one experiment is MAO-A than MAO-B. The following applies: cited from earlier work.
The subject of the next experiment is plasma norepinephrine. The experiment can be described thus: Plasma norepinephrine concentration after dosing with droxidopa or droxidopa combinations in rats. Type of experiment: in vivo, male Sprague Dawley rats. The following applies: versus vehicle alone, 2 hours post-dosing, rat. The protocol:
The pharmacokinetic properties of droxidopa combinations useful in the methods of the invention were evaluated in male Sprague Dawley rats.
Administration of droxidopa combinations was seen to affect plasma norepinephrine concentration in comparison to administration of droxidopa alone. Formulation 0 indicates administration of the vehicle alone without droxidopa or a droxidopa combination of the invention and provides a baseline comparative of plasma norepinephrine levels in an untreated subject.

On to `O=C(NCCN1CCOCC1)c1ccc(Cl)cc1` [moclobemide], for which, in the experiment on MAO-A than MAO-B, the “selectivity for MAO-A than MAO-B” value is recorded as “approximately three times more selective for MAO-A than MAO-B”. For the molecule `NC(C(=O)O)C(O)c1ccc(O)c(O)c1` (stereo not drawn) [droxidopa, threo-3-(3,4-dihydroxyphenyl)serine], the “increase in plasma norepinephrine concentration” value in the experiment with plasma norepinephrine is listed as around 5 fold.
